Assay results reported in paper PMC7305236, “The atypical chemokine receptor ACKR3/CXCR7 is a broad-spectrum scavenger for opioid peptides” (Nature Communications, 2020).
Read-outs that look alike come from different tables or passages of the source. Starred links: 1 amine or outer side, 2 acyl side, 3 side chain; linkers in the order of their positions; H or OH if unused. Non-standard residues stand in square brackets, D forms with d. Residues, ends and D or L forms follow the SMILES beside them. X1 = N[C@@H](Cc1ccccc1)CN(CC(=O)[*:2])[*:1]

Assays:
Assay in all cases: Figure S2a opioid peptide screen on chemokine receptors
Design in all cases: dose or concentration left out as unconfirmed
CXCR3B = biological target: T1, CXCR3B (Homo sapiens, UniProt P49682); format: cell-based
T1 construct: expressed in transfected cells; host or cells: U87 cells
T1 sequence (P49682 1-415 isoform P49682-2): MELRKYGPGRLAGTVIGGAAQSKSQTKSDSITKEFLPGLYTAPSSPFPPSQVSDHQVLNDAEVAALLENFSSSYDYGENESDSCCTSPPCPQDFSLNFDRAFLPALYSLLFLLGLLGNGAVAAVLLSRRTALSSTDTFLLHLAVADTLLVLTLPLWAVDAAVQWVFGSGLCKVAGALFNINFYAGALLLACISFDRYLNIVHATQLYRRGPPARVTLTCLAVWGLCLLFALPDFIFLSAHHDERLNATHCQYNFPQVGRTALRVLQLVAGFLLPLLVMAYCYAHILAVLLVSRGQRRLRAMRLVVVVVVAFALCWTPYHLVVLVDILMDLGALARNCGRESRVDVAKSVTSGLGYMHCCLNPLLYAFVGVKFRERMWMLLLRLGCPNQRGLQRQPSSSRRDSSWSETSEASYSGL

ACKR2 = biological target: T2, ACKR2 (Homo sapiens, UniProt O00590); format: cell-based
T2 construct: expressed in transfected cells; host or cells: U87 cells (human glioblastoma)
T2 sequence (O00590 1-384): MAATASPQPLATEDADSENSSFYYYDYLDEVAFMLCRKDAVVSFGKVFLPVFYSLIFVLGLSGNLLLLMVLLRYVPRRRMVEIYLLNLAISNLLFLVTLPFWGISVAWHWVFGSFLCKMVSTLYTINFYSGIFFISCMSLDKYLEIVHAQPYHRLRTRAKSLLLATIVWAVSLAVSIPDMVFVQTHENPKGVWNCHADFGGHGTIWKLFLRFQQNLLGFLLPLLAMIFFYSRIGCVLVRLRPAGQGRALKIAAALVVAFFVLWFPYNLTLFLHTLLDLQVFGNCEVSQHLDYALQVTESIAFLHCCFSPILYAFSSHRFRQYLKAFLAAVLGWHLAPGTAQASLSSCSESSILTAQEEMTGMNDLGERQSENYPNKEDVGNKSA

CCR2 = biological target: T3, CCR2 (Homo sapiens, UniProt P41597); format: cell-based
T3 construct: expressed in transfected cells
T3 sequence (P41597 1-360 isoform P41597-2): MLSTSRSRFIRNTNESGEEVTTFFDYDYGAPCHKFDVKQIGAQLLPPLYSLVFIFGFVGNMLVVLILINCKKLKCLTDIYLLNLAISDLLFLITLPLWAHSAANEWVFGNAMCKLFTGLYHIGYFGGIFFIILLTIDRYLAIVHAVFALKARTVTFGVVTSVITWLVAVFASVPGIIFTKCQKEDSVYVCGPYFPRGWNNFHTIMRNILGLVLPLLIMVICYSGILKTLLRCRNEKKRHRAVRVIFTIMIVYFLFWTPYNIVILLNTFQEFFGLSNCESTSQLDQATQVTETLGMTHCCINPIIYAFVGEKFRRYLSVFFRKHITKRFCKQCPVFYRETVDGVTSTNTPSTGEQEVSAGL

CCR4 = biological target: T4, CCR4 (Homo sapiens, UniProt P51679); format: cell-based
T4 construct: expressed in transfected cells
T4 sequence (P51679 1-360): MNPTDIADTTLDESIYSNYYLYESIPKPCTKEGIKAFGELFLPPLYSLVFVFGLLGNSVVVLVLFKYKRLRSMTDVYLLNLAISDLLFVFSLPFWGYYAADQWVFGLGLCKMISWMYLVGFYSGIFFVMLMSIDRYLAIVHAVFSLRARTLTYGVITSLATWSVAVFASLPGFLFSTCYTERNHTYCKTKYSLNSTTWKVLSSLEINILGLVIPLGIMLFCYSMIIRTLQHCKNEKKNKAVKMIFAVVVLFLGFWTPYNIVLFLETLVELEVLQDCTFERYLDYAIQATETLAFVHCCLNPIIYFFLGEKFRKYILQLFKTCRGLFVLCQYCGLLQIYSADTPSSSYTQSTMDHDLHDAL

CCR6 = biological target: T5, CCR6 (Homo sapiens, UniProt P51684); format: cell-based
T5 construct: expressed in transfected cells
T5 sequence (P51684 1-374): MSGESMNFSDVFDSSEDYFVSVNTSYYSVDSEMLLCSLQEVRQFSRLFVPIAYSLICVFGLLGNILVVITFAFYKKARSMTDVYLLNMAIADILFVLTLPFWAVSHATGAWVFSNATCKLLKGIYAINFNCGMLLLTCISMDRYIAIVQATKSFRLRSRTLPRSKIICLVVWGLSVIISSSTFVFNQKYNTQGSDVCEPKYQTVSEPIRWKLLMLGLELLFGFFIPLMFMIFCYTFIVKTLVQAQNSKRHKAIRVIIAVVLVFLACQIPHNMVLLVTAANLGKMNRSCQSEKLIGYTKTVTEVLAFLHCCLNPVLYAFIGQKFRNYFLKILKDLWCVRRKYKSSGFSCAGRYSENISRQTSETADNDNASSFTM

CCR1 = biological target: T6, CCR1 (Homo sapiens, UniProt P32246); format: cell-based
T6 construct: expressed in transfected cells
T6 sequence (P32246 1-355): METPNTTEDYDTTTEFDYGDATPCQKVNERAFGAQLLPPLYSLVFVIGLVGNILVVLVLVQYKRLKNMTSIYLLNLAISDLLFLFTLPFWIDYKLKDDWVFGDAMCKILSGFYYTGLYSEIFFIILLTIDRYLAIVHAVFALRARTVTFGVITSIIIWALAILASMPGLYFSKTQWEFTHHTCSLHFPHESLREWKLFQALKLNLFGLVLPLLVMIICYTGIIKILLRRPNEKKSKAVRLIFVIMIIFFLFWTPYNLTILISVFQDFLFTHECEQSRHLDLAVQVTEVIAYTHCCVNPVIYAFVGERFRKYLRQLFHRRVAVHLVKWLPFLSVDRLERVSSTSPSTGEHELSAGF

CCR8 = CCR8 (Homo sapiens, UniProt P51685); conditions: read-out: CCR8 activity, ctrl+ = 100, Figure S2a
[1] = replicate 1, read-out: CXCR3B activity, ctrl+ = 100
[2] = replicate 2, read-out: CXCR3B activity, ctrl+ = 100
[3] = replicate 1, read-out: ACKR2 activity, ctrl+ = 100
[4] = replicate 2, read-out: ACKR2 activity, ctrl+ = 100
[5] = replicate 1, read-out: CCR2 activity, ctrl+ = 100
[6] = replicate 2, read-out: CCR2 activity, ctrl+ = 100
[7] = replicate 1, read-out: CCR4 activity, ctrl+ = 100
[8] = replicate 2, read-out: CCR4 activity, ctrl+ = 100
[9] = replicate 1, read-out: CCR6 activity, ctrl+ = 100
[10] = replicate 2, read-out: CCR6 activity, ctrl+ = 100
[11] = replicate 1, read-out: CCR1 activity, ctrl+ = 100
[12] = replicate 2, read-out: CCR1 activity, ctrl+ = 100
[13] = replicate 3, read-out: CXCR3B activity, ctrl+ = 100
[14] = replicate 3, read-out: ACKR2 activity, ctrl+ = 100
[15] = replicate 3, read-out: CCR2 activity, ctrl+ = 100
[16] = replicate 3, read-out: CCR4 activity, ctrl+ = 100
[17] = replicate 3, read-out: CCR6 activity, ctrl+ = 100
[18] = replicate 3, read-out: CCR1 activity, ctrl+ = 100

Chain of CCR8 (P51685 whole entry): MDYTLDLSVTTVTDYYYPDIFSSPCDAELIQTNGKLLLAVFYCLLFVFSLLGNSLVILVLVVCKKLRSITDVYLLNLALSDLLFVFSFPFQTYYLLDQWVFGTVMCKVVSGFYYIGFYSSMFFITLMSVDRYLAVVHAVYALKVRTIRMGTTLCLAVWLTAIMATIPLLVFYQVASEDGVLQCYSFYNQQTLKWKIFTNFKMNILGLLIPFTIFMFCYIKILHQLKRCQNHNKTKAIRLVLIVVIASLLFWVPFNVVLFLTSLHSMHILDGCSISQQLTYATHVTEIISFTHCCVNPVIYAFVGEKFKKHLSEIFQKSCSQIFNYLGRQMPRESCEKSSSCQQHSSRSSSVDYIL

SMILES	activation (CXCR3B; [1]) [%]	activation (CXCR3B; [2]) [%]	activation (ACKR2; [3]) [%]	activation (ACKR2; [4]) [%]	activation (CCR2; [5]) [%]	activation (CCR2; [6]) [%]	activation (CCR4; [7]) [%]	activation (CCR4; [8]) [%]	activation (CCR6; [9]) [%]	activation (CCR6; [10]) [%]	activation (CCR1; [11]) [%]	activation (CCR1; [12]) [%]	activation (CCR8; replicate 1) [%]	activation (CCR8; replicate 2) [%]	activation (CXCR3B; [13]) [%]	activation (ACKR2; [14]) [%]	activation (CCR2; [15]) [%]	activation (CCR4; [16]) [%]	activation (CCR6; [17]) [%]	activation (CCR1; [18]) [%]	also measured
NC(=O)[C@H](Cc1ccccc1)NC(=O)[C@H](Cc1c[nH]c2ccccc12)NC(=O)[C@@H]1CCCN1C(=O)[C@@H](N)Cc1ccc(O)cc1 [Endomorphin-1]	-0.0115	13	-6	11.5	0.794	-3.22	0.589	-1.89	0.653	2.69	3.57	-19.2	-25.5	19.4	–	–	–	–	–	–	–
C[C@H](NC(=O)CNC(=O)[C@@H](NC(=O)[C@H](Cc1ccccc1)NC(=O)CNC(=O)CNC[C@@H](N)Cc1ccccc1)[C@@H](C)O)C(=O)N[C@@H](CCCNC(=N)N)C(=O)N[C@@H](CCCCN)C(=O)N[C@@H](CO)C(=O)N[C@@H](C)C(=O)N[C@@H](CCCNC(=N)N)C(=O)N[C@@H](CCCCN)C(N)=O [FG Nociceptin 1-13] (H-[X1]GFTGARKSARK-NH2)	-0.717	1.26	-51.1	36.5	-0.148	-0.651	-0.803	-1.43	0.145	-0.683	5.65	-10.1	-24.5	3.75	8.05	2.35	0.99	-2.08	5.07	-16.6	activation (CCR8; replicate 3): 4.53%
CC(C)C[C@H](NC(=O)[C@H](CCCCN)NC(=O)[C@H](CCCN=C(N)N)NC(=O)[C@H](C)NC(=O)[C@H](CO)NC(=O)[C@H](CCCCN)NC(=O)[C@H](CCCN=C(N)N)NC(=O)[C@H](C)NC(=O)CNC(=O)[C@@H](NC(=O)[C@H](Cc1ccccc1)NC(=O)CNC(=O)CNC(=O)[C@@H](N)Cc1ccccc1)[C@@H](C)O)C(=O)N[C@@H](C)C(=O)N[C@@H](CC(N)=O)C(=O)N[C@@H](CCC(N)=O)C(=O)O [Nociceptin]	-0.23	-6.64	-19.6	-66.1	-0.0919	-3.09	-2.47	-0.825	-0.76	0.601	-16.6	-34.2	27.1	-5.76	–	–	–	–	–	–	–
CC[C@H](C)[C@H](NC(=O)[C@H](CCCNC(=N)N)NC(=O)[C@H](CCCNC(=N)N)NC(=O)[C@H](CC(C)C)NC(=O)[C@H](Cc1ccccc1)NC(=O)CNC(=O)CN)C(=O)N[C@@H](CCCNC(=N)N)C(=O)N1CCC[C@H]1C(=O)N[C@@H](CCCCN)C(=O)N[C@@H](CC(C)C)C(=O)N[C@@H](CCCCN)C(=O)N[C@@H](Cc1c[nH]c2ccccc12)C(=O)N[C@@H](CC(=O)O)C(=O)N[C@@H](CC(N)=O)C(=O)N[C@@H](CCC(N)=O)C(=O)O [Dynorphin 2-17]	-1.19	-3.44	12.5	-37.2	0.747	-1.44	-4.06	-1.12	-0.438	-1.06	-21	-15.3	-6.57	0.623	–	–	–	–	–	–	–
CC[C@H](C)[C@H](NC(=O)[C@H](CCCNC(=N)N)NC(=O)[C@H](CCCNC(=N)N)NC(=O)[C@H](CC(C)C)NC(=O)[C@H](Cc1ccccc1)NC(=O)CNC(=O)CNC(=O)[C@@H](N)Cc1ccc(O)cc1)C(=O)N[C@@H](CCCNC(=N)N)C(=O)N1CCC[C@H]1C(=O)N[C@@H](CCCCN)C(=O)N[C@@H](CC(C)C)C(=O)N[C@@H](CCCCN)C(=O)O [Dynorphin 1-13]	3.92	-5.01	-0.369	-39.6	-0.833	-2.52	0.25	-3.89	-0.31	-0.732	-29	-26.2	–	-19.6	–	–	–	–	–	–	–
CC(C)C[C@H](NC(=O)[C@H](Cc1ccccc1)NC(=O)CNC(=O)CNC(=O)[C@@H](N)Cc1ccc(O)cc1)C(=O)N[C@@H](CCCN=C(N)N)C(=O)N[C@@H](CCCN=C(N)N)C(=O)N[C@@H](CCC(N)=O)C(=O)N[C@@H](Cc1ccccc1)C(=O)N[C@@H](CCCCN)C(=O)N[C@H](C(=O)N[C@H](C(=O)N[C@H](C(=O)O)[C@@H](C)O)C(C)C)C(C)C [Dynorphin B]	-3.84	-0.0101	-36.9	-27.9	0.688	-2.18	-1.26	-2.57	-0.194	-0.375	-23.7	-13.7	2.83	-25.3	0.918	-3.73	1.67	5.93	-3.12	27.5	activation (CCR8; replicate 3): 18.8%
